Reference: article PMC6199309, “A therapeutic approach to pantothenate kinase associated neurodegeneration” (Nature Communications, 2018)

Key:
Format in all cases: binding
SGK3 = molecular target: T1, SGK3 (Homo sapiens, UniProt Q96BR1); assay: KINOMEscan; conditions: read-out: %Ctrl @ 10000nM
T1 construct: purchased DiscoverX KINOMEscan

IKK-epsilon = molecular target: T2, IKK-epsilon (Homo sapiens, UniProt Q14164); assay: KINOMEscan; conditions: read-out: %Ctrl @ 10000nM
T2 construct: purchased DiscoverX KINOMEscan

LATS2 = molecular target: T3, LATS2 (Homo sapiens, UniProt Q9NRM7); assay: KINOMEscan; conditions: read-out: %Ctrl @ 10000nM
T3 construct: purchased DiscoverX KINOMEscan

OSR1 = molecular target: T4, OSR1 (Homo sapiens, UniProt O95747); assay: KINOMEscan; conditions: read-out: %Ctrl @ 10000nM
T4 construct: purchased DiscoverX KINOMEscan

PIK3CA(E542K) = molecular target: T5, PIK3CA(E542K) (Homo sapiens, UniProt P42336, E542K); assay: KINOMEscan; conditions: read-out: %Ctrl @ 10000nM
T5 construct: purchased DiscoverX KINOMEscan

EGFR(G719C) = molecular target: T6, EGFR(G719C) (Homo sapiens, UniProt P00533, G719C); assay: KINOMEscan; conditions: read-out: %Ctrl @ 10000nM
T6 construct: purchased DiscoverX KINOMEscan

WNK2 = molecular target: T7, WNK2 (Homo sapiens, UniProt Q9Y3S1); assay: KINOMEscan; conditions: read-out: %Ctrl @ 10000nM
T7 construct: DNA label for qPCR (T7 phage fusion or DNA tag); purchased DiscoverX scanMAX; host or cells: E. coli BL21-derived (T7 phage) or HEK-293

[1] = molecular target: T8, ABL1(Q252H)-phosphorylated (Homo sapiens, UniProt P00519, Q252H); assay: KINOMEscan; conditions: read-out: %Ctrl @ 10000nM
T8 construct: purchased DiscoverX KINOMEscan

[2] = molecular target: T9, RSK1(Kin.Dom.1-N-terminal) (Homo sapiens, UniProt Q15418); assay: KINOMEscan; conditions: read-out: %Ctrl @ 10000nM
T9 construct: RSK1(Kin.Dom.1-N-terminal); purchased DiscoverX KINOMEscan

EPHA2 = molecular target: T10, EPHA2 (Homo sapiens, UniProt P29317); assay: KINOMEscan; conditions: read-out: %Ctrl @ 10000nM
T10 construct: purchased DiscoverX KINOMEscan

SIK2 = molecular target: T11, SIK2 (Homo sapiens, UniProt Q9H0K1); assay: KINOMEscan KdELECT
T11 construct: DNA tag for qPCR (T7 phage fusion or DNA label); purchased DiscoverX KdELECT; host or cells: E. coli BL21-derived (T7 phage) or HEK-293

PIP5K2C = molecular target: T12, PIP5K2C (Homo sapiens, UniProt Q8TBX8); assay: KINOMEscan; conditions: read-out: %Ctrl @ 10000nM
T12 construct: purchased DiscoverX KINOMEscan

YES = molecular target: T13, YES (Homo sapiens, UniProt P07947); assay: KINOMEscan; conditions: read-out: %Ctrl @ 10000nM
T13 construct: purchased DiscoverX scanMAX; host or cells: E. coli BL21-derived host (T7 phage) or HEK-293

PRKCE = molecular target: T14, PRKCE (Homo sapiens, UniProt Q02156); assay: KINOMEscan; conditions: read-out: %Ctrl @ 10000nM
T14 construct: purchased DiscoverX KINOMEscan

VRK2 = molecular target: T15, VRK2 (Homo sapiens, UniProt Q86Y07); assay: KINOMEscan; conditions: read-out: %Ctrl @ 10000nM
T15 construct: DNA label for qPCR (T7 phage fusion or DNA tag); purchased DiscoverX scanMAX; host or cells: E. coli BL21-derived (T7 phage) or HEK-293

ERK2 = molecular target: T16, ERK2 (Homo sapiens, UniProt P28482); assay: KINOMEscan; conditions: read-out: %Ctrl @ 10000nM
T16 construct: purchased DiscoverX KINOMEscan

PHKG1 = molecular target: T17, PHKG1 (Homo sapiens, UniProt Q16816); assay: KINOMEscan; conditions: read-out: %Ctrl @ 10000nM
T17 construct: purchased DiscoverX KINOMEscan

CSNK1G1 = molecular target: T18, CSNK1G1 (Homo sapiens, UniProt Q9HCP0); assay: KINOMEscan; conditions: read-out: %Ctrl @ 10000nM
T18 construct: purchased DiscoverX KINOMEscan

CAMKK1 = molecular target: T19, CAMKK1 (Homo sapiens, UniProt Q8N5S9); assay: KINOMEscan; conditions: read-out: %Ctrl @ 10000nM
T19 construct: purchased DiscoverX KINOMEscan

PFCDPK1(P.falciparum) = molecular target: T20, PFCDPK1(P.falciparum) (Plasmodium falciparum, UniProt P62344); assay: KINOMEscan; conditions: read-out: %Ctrl @ 10000nM
T20 construct: purchased DiscoverX KINOMEscan

PAK4 = molecular target: T21, PAK4 (Homo sapiens, UniProt O96013); assay: KINOMEscan; conditions: read-out: %Ctrl @ 10000nM
T21 construct: purchased DiscoverX KINOMEscan

AAK1 = molecular target: T22, AAK1 (Homo sapiens, UniProt Q2M2I8); assay: KINOMEscan; conditions: read-out: %Ctrl @ 10000nM
T22 construct: purchased DiscoverX KINOMEscan

PLK1 = molecular target: T23, PLK1 (Homo sapiens, UniProt P53350); assay: KINOMEscan; conditions: read-out: %Ctrl @ 10000nM
T23 construct: purchased DiscoverX KINOMEscan

PLK2 = molecular target: T24, PLK2 (Homo sapiens, UniProt Q9NYY3); assay: KINOMEscan; conditions: read-out: %Ctrl @ 10000nM
T24 construct: purchased DiscoverX KINOMEscan

LYN = molecular target: T25, LYN (Homo sapiens, UniProt P07948); assay: KINOMEscan; conditions: read-out: %Ctrl @ 10000nM
T25 construct: purchased DiscoverX KINOMEscan

CDKL3 = molecular target: T26, CDKL3 (Homo sapiens, UniProt Q8IVW4); assay: KINOMEscan; conditions: read-out: %Ctrl @ 10000nM
T26 construct: purchased DiscoverX KINOMEscan

PAK1 = molecular target: T27, PAK1 (Homo sapiens, UniProt Q13153); assay: KINOMEscan; conditions: read-out: %Ctrl @ 10000nM
T27 construct: purchased DiscoverX KINOMEscan

FLT3(K663Q) = molecular target: T28, FLT3(K663Q) (Homo sapiens, UniProt P36888, K663Q); assay: KINOMEscan; conditions: read-out: %Ctrl @ 10000nM
T28 construct: purchased DiscoverX KINOMEscan

DAPK3 = molecular target: T29, DAPK3 (Homo sapiens, UniProt O43293); assay: KINOMEscan; conditions: read-out: %Ctrl @ 10000nM
T29 construct: purchased DiscoverX KINOMEscan

CLK1 = molecular target: T30, CLK1 (Homo sapiens, UniProt P49759); assay: KINOMEscan; conditions: read-out: %Ctrl @ 10000nM
T30 construct: purchased DiscoverX KINOMEscan

[3] = molecular target: T31, JAK1(JH2domain-pseudokinase) (Homo sapiens, UniProt P23458); assay: KINOMEscan; conditions: read-out: %Ctrl @ 10000nM
T31 construct: JAK1(JH2domain-pseudokinase); purchased DiscoverX KINOMEscan

PKN2 = molecular target: T32, PKN2 (Homo sapiens, UniProt Q16513); assay: KINOMEscan; conditions: read-out: %Ctrl @ 10000nM
T32 construct: purchased DiscoverX KINOMEscan

EPHB3 = molecular target: T33, EPHB3 (Homo sapiens, UniProt P54753); assay: KINOMEscan; conditions: read-out: %Ctrl @ 10000nM
T33 construct: purchased DiscoverX KINOMEscan

JNK1 = molecular target: T34, JNK1 (Homo sapiens, UniProt P45983); assay: KINOMEscan; conditions: read-out: %Ctrl @ 10000nM
T34 construct: purchased DiscoverX KINOMEscan

RIPK1 = molecular target: T35, RIPK1 (Homo sapiens, UniProt Q13546); assay: KINOMEscan; conditions: read-out: %Ctrl @ 10000nM
T35 construct: purchased DiscoverX KINOMEscan

MTOR = molecular target: T36, MTOR (Homo sapiens, UniProt P42345); assay: KINOMEscan; conditions: read-out: %Ctrl @ 10000nM
T36 construct: purchased DiscoverX KINOMEscan

ADCK3 = molecular target: T37, ADCK3 (Homo sapiens, UniProt Q8NI60); assay: KINOMEscan; conditions: read-out: %Ctrl @ 10000nM
T37 construct: purchased DiscoverX KINOMEscan

MLK3 = molecular target: T38, MLK3 (Homo sapiens, UniProt Q16584); assay: KINOMEscan; conditions: read-out: %Ctrl @ 10000nM
T38 construct: purchased DiscoverX KINOMEscan

RIPK2 = molecular target: T39, RIPK2 (Homo sapiens, UniProt O43353); assay: KINOMEscan; conditions: read-out: %Ctrl @ 10000nM
T39 construct: purchased DiscoverX KINOMEscan
T39 sequence (O43353 whole entry): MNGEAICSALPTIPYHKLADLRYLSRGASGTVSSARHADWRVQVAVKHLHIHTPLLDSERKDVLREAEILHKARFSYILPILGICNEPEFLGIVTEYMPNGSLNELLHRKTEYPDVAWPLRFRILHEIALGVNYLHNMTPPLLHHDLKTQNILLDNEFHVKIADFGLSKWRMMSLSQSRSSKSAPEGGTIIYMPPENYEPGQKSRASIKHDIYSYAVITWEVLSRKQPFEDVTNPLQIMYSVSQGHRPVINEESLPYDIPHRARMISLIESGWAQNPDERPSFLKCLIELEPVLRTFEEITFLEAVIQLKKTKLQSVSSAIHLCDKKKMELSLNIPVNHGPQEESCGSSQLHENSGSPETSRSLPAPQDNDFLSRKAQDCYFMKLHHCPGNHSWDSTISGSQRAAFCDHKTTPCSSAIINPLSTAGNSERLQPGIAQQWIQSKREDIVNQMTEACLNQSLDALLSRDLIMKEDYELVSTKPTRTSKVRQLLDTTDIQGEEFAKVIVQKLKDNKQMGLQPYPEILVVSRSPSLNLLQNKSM

T11 sequence (Q9H0K1 whole entry, the tested form may be a part): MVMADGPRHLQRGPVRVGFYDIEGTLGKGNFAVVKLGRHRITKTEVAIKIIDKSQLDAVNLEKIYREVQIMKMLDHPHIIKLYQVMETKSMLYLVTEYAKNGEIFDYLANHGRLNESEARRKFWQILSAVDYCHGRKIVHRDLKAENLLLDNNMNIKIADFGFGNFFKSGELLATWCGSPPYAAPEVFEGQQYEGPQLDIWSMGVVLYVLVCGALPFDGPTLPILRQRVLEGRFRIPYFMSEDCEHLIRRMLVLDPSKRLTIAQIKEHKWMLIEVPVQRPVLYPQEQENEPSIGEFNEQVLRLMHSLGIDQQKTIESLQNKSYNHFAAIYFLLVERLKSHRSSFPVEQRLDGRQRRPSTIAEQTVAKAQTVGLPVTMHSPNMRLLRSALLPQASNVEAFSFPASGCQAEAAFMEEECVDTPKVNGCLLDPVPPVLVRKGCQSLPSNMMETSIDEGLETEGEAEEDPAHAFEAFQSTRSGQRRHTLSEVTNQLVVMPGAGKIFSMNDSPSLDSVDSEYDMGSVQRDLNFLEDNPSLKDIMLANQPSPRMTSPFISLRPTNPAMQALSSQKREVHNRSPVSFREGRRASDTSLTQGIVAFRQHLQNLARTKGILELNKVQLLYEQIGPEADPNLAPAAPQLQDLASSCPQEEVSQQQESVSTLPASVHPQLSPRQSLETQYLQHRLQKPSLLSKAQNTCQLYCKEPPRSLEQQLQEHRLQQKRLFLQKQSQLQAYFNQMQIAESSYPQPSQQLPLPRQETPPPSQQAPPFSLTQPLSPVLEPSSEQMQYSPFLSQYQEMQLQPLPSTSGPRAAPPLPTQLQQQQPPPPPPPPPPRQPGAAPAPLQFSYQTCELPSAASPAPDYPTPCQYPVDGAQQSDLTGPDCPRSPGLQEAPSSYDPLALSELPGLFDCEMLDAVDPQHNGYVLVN
T12 sequence (Q8TBX8 whole entry): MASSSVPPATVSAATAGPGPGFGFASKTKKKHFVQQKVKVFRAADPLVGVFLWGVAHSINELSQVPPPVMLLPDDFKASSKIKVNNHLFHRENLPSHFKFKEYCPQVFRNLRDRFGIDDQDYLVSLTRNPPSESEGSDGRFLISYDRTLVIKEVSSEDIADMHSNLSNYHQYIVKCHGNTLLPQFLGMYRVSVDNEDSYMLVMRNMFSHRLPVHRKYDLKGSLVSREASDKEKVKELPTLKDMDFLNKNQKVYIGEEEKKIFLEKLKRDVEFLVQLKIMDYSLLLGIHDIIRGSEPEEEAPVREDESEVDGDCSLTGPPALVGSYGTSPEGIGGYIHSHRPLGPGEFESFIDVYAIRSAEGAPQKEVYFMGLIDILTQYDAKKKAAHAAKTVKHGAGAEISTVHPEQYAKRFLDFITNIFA
T13 sequence (P07947 whole entry): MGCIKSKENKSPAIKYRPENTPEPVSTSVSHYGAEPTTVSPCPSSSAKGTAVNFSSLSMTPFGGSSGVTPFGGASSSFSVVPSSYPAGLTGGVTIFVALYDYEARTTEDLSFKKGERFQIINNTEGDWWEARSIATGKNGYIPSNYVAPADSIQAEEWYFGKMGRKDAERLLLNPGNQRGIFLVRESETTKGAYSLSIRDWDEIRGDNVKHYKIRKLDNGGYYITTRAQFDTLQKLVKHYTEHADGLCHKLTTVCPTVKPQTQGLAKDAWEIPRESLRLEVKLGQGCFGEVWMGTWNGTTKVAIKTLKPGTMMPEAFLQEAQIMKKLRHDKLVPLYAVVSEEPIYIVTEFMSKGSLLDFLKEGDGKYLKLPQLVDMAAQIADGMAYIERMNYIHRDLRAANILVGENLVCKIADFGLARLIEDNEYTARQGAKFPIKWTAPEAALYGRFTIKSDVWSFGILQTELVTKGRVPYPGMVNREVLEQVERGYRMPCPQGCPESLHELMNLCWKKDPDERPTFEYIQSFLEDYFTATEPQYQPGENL
T23 sequence (P53350 whole entry): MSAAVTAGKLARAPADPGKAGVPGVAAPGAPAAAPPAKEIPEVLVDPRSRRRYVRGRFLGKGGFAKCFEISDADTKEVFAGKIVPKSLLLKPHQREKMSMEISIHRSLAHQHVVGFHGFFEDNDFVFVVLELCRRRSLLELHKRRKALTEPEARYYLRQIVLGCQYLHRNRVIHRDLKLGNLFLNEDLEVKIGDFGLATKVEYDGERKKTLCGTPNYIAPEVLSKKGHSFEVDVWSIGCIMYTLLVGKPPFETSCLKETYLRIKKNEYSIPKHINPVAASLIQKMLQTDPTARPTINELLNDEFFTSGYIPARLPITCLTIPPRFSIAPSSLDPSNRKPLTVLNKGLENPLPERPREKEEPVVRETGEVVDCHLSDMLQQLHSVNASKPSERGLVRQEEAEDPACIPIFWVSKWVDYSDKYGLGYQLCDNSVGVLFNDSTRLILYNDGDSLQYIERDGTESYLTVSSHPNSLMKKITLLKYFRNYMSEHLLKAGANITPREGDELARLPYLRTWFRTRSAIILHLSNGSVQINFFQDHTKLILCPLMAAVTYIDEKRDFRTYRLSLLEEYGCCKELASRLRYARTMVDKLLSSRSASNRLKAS
T38 sequence (Q16584 whole entry): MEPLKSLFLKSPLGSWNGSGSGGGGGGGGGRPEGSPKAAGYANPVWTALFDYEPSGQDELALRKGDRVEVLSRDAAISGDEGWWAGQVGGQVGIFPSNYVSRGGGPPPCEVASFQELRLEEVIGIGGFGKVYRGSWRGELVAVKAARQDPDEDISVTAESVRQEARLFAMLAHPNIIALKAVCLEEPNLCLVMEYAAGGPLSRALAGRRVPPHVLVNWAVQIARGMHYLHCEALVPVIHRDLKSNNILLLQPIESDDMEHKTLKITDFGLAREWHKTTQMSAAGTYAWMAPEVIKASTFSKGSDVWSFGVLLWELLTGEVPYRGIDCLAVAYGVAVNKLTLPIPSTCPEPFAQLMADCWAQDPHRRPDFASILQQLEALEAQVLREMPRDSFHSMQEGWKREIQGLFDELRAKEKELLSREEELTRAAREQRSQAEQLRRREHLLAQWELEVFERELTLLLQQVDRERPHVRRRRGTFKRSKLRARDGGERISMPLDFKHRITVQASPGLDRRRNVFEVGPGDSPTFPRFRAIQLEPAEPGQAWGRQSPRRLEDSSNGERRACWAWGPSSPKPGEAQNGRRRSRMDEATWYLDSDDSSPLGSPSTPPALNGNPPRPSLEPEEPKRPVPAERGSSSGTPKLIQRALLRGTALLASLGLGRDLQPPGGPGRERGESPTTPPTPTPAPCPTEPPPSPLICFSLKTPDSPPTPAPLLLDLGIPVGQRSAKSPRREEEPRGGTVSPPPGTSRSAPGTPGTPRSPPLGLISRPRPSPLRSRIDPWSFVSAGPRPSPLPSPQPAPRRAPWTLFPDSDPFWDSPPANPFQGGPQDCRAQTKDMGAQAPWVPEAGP
T2 sequence (Q14164 whole entry): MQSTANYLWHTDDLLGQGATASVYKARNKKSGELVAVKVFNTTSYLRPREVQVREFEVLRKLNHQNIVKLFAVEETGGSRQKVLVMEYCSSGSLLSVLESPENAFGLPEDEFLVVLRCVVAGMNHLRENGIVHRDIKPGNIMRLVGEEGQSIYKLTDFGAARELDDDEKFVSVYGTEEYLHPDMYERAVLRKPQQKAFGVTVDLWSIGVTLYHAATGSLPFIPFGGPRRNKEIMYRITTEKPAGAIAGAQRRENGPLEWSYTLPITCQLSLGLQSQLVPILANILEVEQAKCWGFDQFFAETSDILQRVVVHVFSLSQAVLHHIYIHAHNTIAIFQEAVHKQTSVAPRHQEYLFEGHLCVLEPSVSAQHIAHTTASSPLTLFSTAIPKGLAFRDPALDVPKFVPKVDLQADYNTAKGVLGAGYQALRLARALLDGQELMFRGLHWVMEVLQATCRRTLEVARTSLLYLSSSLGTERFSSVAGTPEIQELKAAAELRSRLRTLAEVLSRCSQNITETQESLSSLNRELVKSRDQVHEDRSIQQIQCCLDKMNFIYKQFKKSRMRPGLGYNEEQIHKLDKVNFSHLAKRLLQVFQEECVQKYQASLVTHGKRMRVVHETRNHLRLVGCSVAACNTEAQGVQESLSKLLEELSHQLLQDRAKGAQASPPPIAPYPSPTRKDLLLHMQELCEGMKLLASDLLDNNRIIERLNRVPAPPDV
T31 sequence (P23458 574-855 limits assumed): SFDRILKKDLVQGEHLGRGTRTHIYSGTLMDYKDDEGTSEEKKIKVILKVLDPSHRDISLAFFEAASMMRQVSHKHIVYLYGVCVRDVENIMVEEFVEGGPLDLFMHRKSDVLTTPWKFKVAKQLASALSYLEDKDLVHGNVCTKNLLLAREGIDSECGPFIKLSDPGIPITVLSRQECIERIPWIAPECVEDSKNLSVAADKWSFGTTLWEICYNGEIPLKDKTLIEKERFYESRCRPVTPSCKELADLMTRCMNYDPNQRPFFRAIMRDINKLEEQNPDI

CC(C)c1ccc(CC(=O)N2CCN(c3ccc(C#N)nn3)CC2)cc1 [PZ-2891, 6-(4-(2-(4-isopropylphenyl)acetyl)piperazin-1-yl)pyridazine-3-carbonitrile]
remaining binding at 10 µM (SGK3): 71%
remaining binding at 10 µM (IKK-epsilon): 89%
remaining binding at 10 µM (LATS2): 82%
remaining binding at 10 µM (OSR1): 87%
remaining binding at 10 µM (PIK3CA(E542K)): 64%
remaining binding at 10 µM (EGFR(G719C)): 100%
remaining binding at 10 µM (WNK2): 87%
remaining binding at 10 µM [1]: 74%
remaining binding at 10 µM [2]: 100%
remaining binding at 10 µM (EPHA2): 100%
Kd (SIK2; SIK2): > 30 µM
Kd (SIK2; SIK2 Replicate ID = 1): > 30 µM
Kd (SIK2; SIK2 Replicate ID = 2): > 30 µM
remaining binding at 10 µM (PIP5K2C): 85%
remaining binding at 10 µM (YES): 90%
remaining binding at 10 µM (PRKCE): 70%
remaining binding at 10 µM (VRK2): 70%
remaining binding at 10 µM (ERK2): 86%
remaining binding at 10 µM (PHKG1): 88%
remaining binding at 10 µM (CSNK1G1): 92%
remaining binding at 10 µM (CAMKK1): 89%
remaining binding at 10 µM (PFCDPK1(P.falciparum)): 97%
remaining binding at 10 µM (PAK4): 92%
remaining binding at 10 µM (AAK1): 84%
remaining binding at 10 µM (PLK1): 85%
remaining binding at 10 µM (PLK2): 84%
remaining binding at 10 µM (LYN): 79%
remaining binding at 10 µM (CDKL3): 86%
remaining binding at 10 µM (PAK1): 76%
remaining binding at 10 µM (FLT3(K663Q)): 88%
remaining binding at 10 µM (DAPK3): 100%
remaining binding at 10 µM (CLK1): 75%
remaining binding at 10 µM [3]: 47%
remaining binding at 10 µM (PKN2): 94%
remaining binding at 10 µM (EPHB3): 92%
remaining binding at 10 µM (JNK1): 62%
remaining binding at 10 µM (RIPK1): 98%
remaining binding at 10 µM (MTOR): 68%
remaining binding at 10 µM (ADCK3): 100%
remaining binding at 10 µM (MLK3): 80%
remaining binding at 10 µM (RIPK2): 89%
